# Measurements as given in US7405207B2, “Nebulizer formulations of dehydroepiandrosterone and methods of treating asthma or chronic obstructive pulmonary disease using compositions thereof” (Epigenesis Pharmaceuticals, Inc., priority 2002, dated 2008).
# “And” between values parts separate entries of the source, which are not always exact repeats. Equal entries are not always repeated.
# Columns and labels:
# Assay type in all cases: physicochemical
# [1] = Stability of anhydrous DHEA-S and DHEA-S dihydrate with and without lactose (HPLC, DHEA formed)
# Description: These conditions were used to stress the formulation in order to predict its long-term stability results.
# The primary degradant is dehydroepiandrosterone or DHEA. […] The materials on accelerated storage become more cohesive with time as evidenced by clumping during sample weighing for chemical analysis. […] This is a considerable disadvantage since lactose is the most commonly used inhalation excipient for dry powder formulations. Continuing with the virtually anhydrous form would mean limiting formulations to neat powder or undertaking more comprehensive safety studies to use a novel excipient.
# Solubility of DHEA-S = conditions: 20 mM Na+ (0.12% NaCl), Ksp of 1316 mM^2, 15° C.
# Description: Inhalation of pure water can produce a cough stimulus.
# [2] = Short-term solution stability; conditions: 7.5 mg/mL in 0.12% NaCl, room temperature
# Experimental: Stability Studies. […] Aliquots of this solution are filled into clear glass vials and stored at room temperature (24-26° C.) and at 40° C. The samples are checked daily for DHEA-S content, DHEA content, and appearance. For each time point, duplicate samples are withdrawn and diluted from each vial.
SMILES,"water content ([1]; after accelerated storage, one week at 50° C.)",water content ([1]; starting value),calculated DHEA-S concentration (solubility) (Solubility of DHEA-S),solution stability [2]
"CC12CCC3C(CC=C4CC(OS(=O)(=O)[O-])CCC43C)C1CCC2=O.[Na+] (stereo not shown) [DHEA-S Dihydrate, dehydroepiandrosterone sodium sulfate dihydrate]",8.66%,8.8%,,
"C[C@]12CC[C@H](OS(=O)(=O)[O-])CC1=CC[C@@H]1[C@@H]2CC[C@]2(C)C(=O)CC[C@@H]12.[Na+] [DHEA-S, sodium dehydroepiandrostenone sulfate]",,,27.5 mM and 10.7 mg/mL,stable for at least one day
